The source of these data is patent US20250195521A1 (Revolution Medicines, Inc., priority 2020, published 2025).

Test [1] relates to Capan-1 cells (K-Ras G12V). Description: CellTiter-Glo cell viability, Capan-1. In kind it is cell-based, human. To be noted: Homo sapiens, CAPAN-1, 120 h, K-Ras G12V, 5-day treatment; read-out: Capan-1 Cell Viability IC50. The method, boiled down:
(§1)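 Five-day treatment of K-Ras mutant cells with directly dispensed compound; ATP-based luminescence endpoint. Percent of DMSO signal fit to four-parameter logistic curve.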
For orientation: Cellular ATP, detected with luciferase, serves as a proxy for viable cell number.

Test [2] addresses KRAS G12S (Homo sapiens (Human), UniProt P01116+P62937, G12S). Description: Ras-Raf disruption/FRET/MOA assay (BRAF RBD, Cyclophilin A). The class given is biochemical. To be noted: read-out: KRAS G12S FRET IC50. The essentials:
(§2)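 First, 25 μM Cyclophilin A, 12.5 nM His6-Ras-GMPPNP and 50 nM GST-BRAF RBD are mixed with diluted compound at pH 7.3. Next, 3 h at 25° C. Then 10 nM anti-His Eu-W1024 plus 50 nM anti-GST allophycocyanin for 1.5 h before TR-FRET reading.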

For test [3], the target named is KRAS G12C (Homo sapiens (Human), UniProt P01116+P62937, G12C). Described as above. In kind it is biochemical. To be noted: read-out: KRAS G12C FRET IC50. The method, boiled down:
as §2

The target of test [4] is KRAS G12D (Homo sapiens (Human), UniProt P01116+P62937, G12D). Described as above. The class given is biochemical. The settings on record: read-out: KRAS G12D FRET IC50. The essentials: as §2
Test [5] concerns the target NRAS G12C (Homo sapiens (Human), UniProt P01111+P62937, G12C). The description is as above. In kind it is biochemical. The settings on record: read-out: NRAS G12C FRET data IC50. The essentials:
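TR-FRET readout: anti-His Eu-W1024 (10 nM) and anti-GST allophycocyanin (50 nM) added after 3 h, 25° C compound incubation, then 1.5 h more. Decrease in FRET ratio versus DMSO wells marks Ras:RAF disruption; IC50 reported.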

In test [6] the target is KRAS G13C (Homo sapiens (Human), UniProt P01116+P62937, G13C). The description is as above. In kind it is biochemical. To be noted: read-out: KRAS G13C FRET IC50. The essentials:
as §2

Test [7] has as its target KRAS G12V (Homo sapiens (Human), UniProt P01116+P62937, G12V). Described as above. In kind it is biochemical. To be noted: read-out: KRAS G12V FRET IC50. The method, boiled down:
as §2

Test [8] addresses KRAS WT (Homo sapiens (Human), UniProt P01116+P62937). Described as above. The class given is biochemical. To be noted: read-out: KRAS WT FRET data IC50. The essentials:
as §2

The target in test [9] is KRAS G13D (Homo sapiens (Human), UniProt P01116+P62937, G13D). Described as above. To be noted: read-out: KRAS G13D FRET data IC50. The class given is biochemical. The method, boiled down:
as §2

For test [10], the system named is NCI-H358 cells (K-Ras G12C). Description: CellTiter-Glo cell viability, NCI-H358. In kind it is cell-based, human. To be noted: Homo sapiens, NCI-H358, 120 h, K-Ras G12C, 5-day treatment; read-out: H358 Cell Viability IC50. The essentials:
as §1

Chain of KRAS G13C (P01116 other isoform, or with tags, fused parts or gaps G13C): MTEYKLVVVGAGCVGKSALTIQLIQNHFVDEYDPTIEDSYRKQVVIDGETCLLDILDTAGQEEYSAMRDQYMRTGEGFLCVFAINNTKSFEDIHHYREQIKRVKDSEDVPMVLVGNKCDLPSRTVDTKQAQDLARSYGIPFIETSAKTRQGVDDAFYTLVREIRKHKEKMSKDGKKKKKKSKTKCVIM
Chain of KRAS G13C (P62937 whole entry): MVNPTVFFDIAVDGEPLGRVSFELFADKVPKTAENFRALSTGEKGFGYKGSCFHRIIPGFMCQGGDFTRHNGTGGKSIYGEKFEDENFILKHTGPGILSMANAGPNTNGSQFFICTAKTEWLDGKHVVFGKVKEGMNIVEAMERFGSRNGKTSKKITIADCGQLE
Chain of KRAS G13D (P01116 other isoform, or with tags, fused parts or gaps G13D): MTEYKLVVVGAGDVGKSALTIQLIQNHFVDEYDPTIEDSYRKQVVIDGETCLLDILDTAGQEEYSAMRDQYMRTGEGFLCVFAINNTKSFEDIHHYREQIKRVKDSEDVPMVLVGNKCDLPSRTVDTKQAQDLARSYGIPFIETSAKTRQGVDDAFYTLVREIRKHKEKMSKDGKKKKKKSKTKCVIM
Chain of KRAS G13D (P62937 whole entry): as the sequence (P62937 whole entry) above
Chain of KRAS G12V (P01116 other isoform, or with tags, fused parts or gaps G12V): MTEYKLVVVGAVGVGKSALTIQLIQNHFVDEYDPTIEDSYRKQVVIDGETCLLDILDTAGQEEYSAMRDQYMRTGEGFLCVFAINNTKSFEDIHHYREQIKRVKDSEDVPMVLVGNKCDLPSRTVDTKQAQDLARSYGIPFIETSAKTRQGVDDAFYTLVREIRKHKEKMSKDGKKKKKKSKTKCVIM
Chain of KRAS G12V (P62937 whole entry): as the sequence (P62937 whole entry) above
Chain of NRAS G12C (P01111 whole entry G12C): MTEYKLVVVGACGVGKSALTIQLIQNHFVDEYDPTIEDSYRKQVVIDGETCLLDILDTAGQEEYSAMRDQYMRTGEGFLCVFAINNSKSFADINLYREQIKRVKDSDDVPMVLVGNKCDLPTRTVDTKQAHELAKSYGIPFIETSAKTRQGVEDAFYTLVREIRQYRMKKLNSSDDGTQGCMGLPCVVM
Chain of NRAS G12C (P62937 whole entry): as the sequence (P62937 whole entry) above
Chain of KRAS G12D (P01116 other isoform, or with tags, fused parts or gaps G12D): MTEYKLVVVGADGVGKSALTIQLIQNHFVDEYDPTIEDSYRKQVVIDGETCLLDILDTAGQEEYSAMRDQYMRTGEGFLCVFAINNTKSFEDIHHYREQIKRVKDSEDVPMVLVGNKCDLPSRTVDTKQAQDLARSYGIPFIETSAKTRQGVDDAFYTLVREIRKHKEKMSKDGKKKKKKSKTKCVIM
Chain of KRAS G12D (P62937 whole entry): as the sequence (P62937 whole entry) above
Chain of KRAS G12C (P01116-2 other isoform, or with tags, fused parts or gaps G12C): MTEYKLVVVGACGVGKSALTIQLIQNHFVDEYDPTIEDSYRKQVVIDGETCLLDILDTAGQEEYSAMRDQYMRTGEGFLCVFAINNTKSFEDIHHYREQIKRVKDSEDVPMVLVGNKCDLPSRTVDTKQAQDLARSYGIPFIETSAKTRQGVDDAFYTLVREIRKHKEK
Chain of KRAS G12C (P62937 whole entry): as the sequence (P62937 whole entry) above
Chain of KRAS G12S (P01116 other isoform, or with tags, fused parts or gaps G12S): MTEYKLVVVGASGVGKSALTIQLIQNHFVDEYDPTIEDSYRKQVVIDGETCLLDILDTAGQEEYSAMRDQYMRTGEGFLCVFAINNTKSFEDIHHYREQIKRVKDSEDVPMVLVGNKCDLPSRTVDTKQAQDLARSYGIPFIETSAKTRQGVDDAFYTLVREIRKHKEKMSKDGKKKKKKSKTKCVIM
Chain of KRAS G12S (P62937 whole entry): as the sequence (P62937 whole entry) above
Chain of KRAS WT (P01116 other isoform, or with tags, fused parts or gaps): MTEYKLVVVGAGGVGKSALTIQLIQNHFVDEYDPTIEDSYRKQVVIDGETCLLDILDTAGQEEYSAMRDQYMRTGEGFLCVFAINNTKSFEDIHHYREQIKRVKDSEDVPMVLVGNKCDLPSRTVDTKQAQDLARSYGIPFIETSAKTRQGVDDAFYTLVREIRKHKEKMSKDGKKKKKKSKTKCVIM
Chain of KRAS WT (P62937 whole entry): as the sequence (P62937 whole entry) above

Take `CCn1c(-c2ccccc2[C@H](C)OC)c2c3cc(ccc31)-c1csc(n1)C[C@H](NC(=O)[C@H](C(C)C)N(C)C(=O)[C@H]1CCN(C(=O)OC3COC3)C1)C(=O)N1CCC[C@H](N1)C(=O)OCC(C)(C)C2` [Compound A203]: the IC50 in test [1] is 100 to 1000 nM; in [2], 1000 to 10000 nM; in test [3], 1000 to 10000 nM; in [4], more than 10000 nM; in [5] it was 1000 to 10000 nM; in test [6] it was 1000 to 10000 nM. For the same compound, the IC50 in test [7] fell in the range of 1000 to 10000 nM; in [8], 1000 to 10000 nM; in test [9], 1000 to 10000 nM; in test [10], 100 to 1000 nM.

Take `CCn1c(-c2cccnc2[C@H](C)OC)c2c3cc(ccc31)-c1cc(O)cc(c1)C[C@H](NC(=O)[C@H](C(C)C)N(C)C(=O)C1CCC1)C(=O)N1CCC[C@H](N1)C(=O)OCC(C)(C)C2` [Compound A218]: the IC50 lay within 10 to 100 nM in test [1]; 10 to 100 nM in test [2]; 10 to 100 nM in [3]; 100 to 1000 nM in test [4]; 10 to 100 nM in test [5]; 10 to 100 nM in test [6]. Also, the IC50 in test [7] lay in the range of 10 to 100 nM; in test [8], 10 to 100 nM; in [9] it was 100 to 1000 nM; in test [10], 10 to 100 nM.

Take `CCn1c(-c2cccnc2[C@H](C)OC)c2c3cc(ccc31)-c1cc(O)cc(c1)C[C@H](NC(=O)[C@H](C(C)C)N(C)C(=O)C1CC1)C(=O)N1CCC[C@H](N1)C(=O)OCC(C)(C)C2` [Compound A224]: the half-maximal inhibitory concentration (IC50) lay within 10 to 100 nM in test [1]; 10 to 100 nM in test [2]; 10 to 100 nM in [3]; 100 to 1000 nM in test [4]; 10 to 100 nM in [5]; 10 to 100 nM in test [6]. Besides, the IC50 in test [7], in test [8], in test [9] and in test [10] was 10 to 100 nM throughout.

With `CCn1c(-c2cccnc2[C@H](C)OC)c2c3cc(ccc31)-c1cc(O)cc(c1)C[C@H](NC(=O)[C@H](C(C)C)N(C)C(=O)[C@H]1CCCO1)C(=O)N1CCC[C@H](N1)C(=O)OCC(C)(C)C2` [Compound A240], the IC50 in test [1] lay within 10 to 100 nM; in test [2], 100 to 1000 nM; in test [3], 10 to 100 nM; in [4] it was 100 to 1000 nM; in test [5], 10 to 100 nM; in test [6], 10 to 100 nM. Besides, the IC50 in test [7] was 100 to 1000 nM; in [8], 100 to 1000 nM; in test [9], 100 to 1000 nM; in [10], 10 to 100 nM.

As for `CCn1c(-c2cccnc2[C@H](C)OC)c2c3cc(ccc31)-c1cc(O)cc(c1)C[C@H](NC(=O)[C@H](C(C)C)N(C)C(=O)[C@H]1CCCCNC1)C(=O)N1CCC[C@H](N1)C(=O)OCC(C)(C)C2` [Compound A242], the IC50 in test [1] is 100 to 1000 nM; in test [2], 10 to 100 nM; in test [3], 10 to 100 nM; in test [4], 10 to 100 nM; in test [5], 10 to 100 nM; in [6], 10 to 100 nM. For the same compound, the IC50 in [7] fell in the range of 100 to 1000 nM; in test [8], 10 to 100 nM; in [9], 10 to 100 nM; in test [10], 10 to 100 nM.

Turning to `CCn1c(-c2cccnc2[C@H](C)OC)c2c3cc(ccc31)-c1csc(n1)C[C@H](NC(=O)[C@H](C(C)C)N(C)C(=O)[C@H]1CCN(C(C)=O)C1)C(=O)N1CCC[C@H](N1)C(=O)OCC(C)(C)C2` [Compound A244], the IC50 in [1] is 100 to 1000 nM; in test [2] it was 1000 to 10000 nM; in [3], 1000 to 10000 nM; in test [4], more than 10000 nM; in test [5], 1000 to 10000 nM; in test [6] it was 1000 to 10000 nM. The IC50 in test [7] was 1000 to 10000 nM; in test [8], 1000 to 10000 nM; in test [9], more than 10000 nM; in test [10] it was 1000 to 10000 nM.

Turning to `CCn1c(-c2cccnc2[C@H](C)OC)c2c3cc(ccc31)-c1cc(O)cc(c1)C[C@H](NC(=O)[C@H](C(C)C)N(C)C(=O)C1Cc3nccn3C1)C(=O)N1CCC[C@H](N1)C(=O)OCC(C)(C)C2` (stereo partly shown) [Compound A249], the IC50 in test [1] is 100 to 1000 nM; in [2], 10 to 100 nM; in [3] it was 10 to 100 nM; in test [4], 10 to 100 nM; in test [5] it was 10 to 100 nM; in test [6] it was 10 to 100 nM. Moreover, the IC50 in test [7], in [8], in test [9] and in test [10] was 10 to 100 nM each time.

For `CCn1c(-c2cnccc2COC)c2c3cc(ccc31)-c1cc(O)cc(c1)C[C@H](NC(=O)C(C)C1CCOCC1)C(=O)N1CCC[C@H](N1)C(=O)OCC(C)(C)C2` (stereo partly shown) [Compound A258], the IC50 was more than 10000 nM in test [1]; 1000 to 10000 nM in [2]; 1000 to 10000 nM in test [3]; more than 10000 nM in test [4]; 1000 to 10000 nM in [5]; 100 to 1000 nM in [6]. Also, the IC50 in test [7], in [8], in [9] and in [10] was 1000 to 10000 nM in each case.

As to `CCn1c(-c2cccnc2[C@H](C)OC)c2c3cc(ccc31)-c1csc(n1)C[C@H](NC(=O)[C@H](C(C)C)N(C)C(=O)N1CCN(C)CC13CC3)C(=O)N1CCC[C@H](N1)C(=O)OCC(C)(C)C2` [Compound A307], the IC50 was 100 to 1000 nM in test [1]; 1000 to 10000 nM in [2]; 1000 to 10000 nM in [3]; 1000 to 10000 nM in test [4]; 1000 to 10000 nM in test [5]; 1000 to 10000 nM in test [6]. Besides, the IC50 is 1000 to 10000 nM in [7], 1000 to 10000 nM in test [8], 1000 to 10000 nM in [9] and 10 to 100 nM in test [10].

As for `CCn1c(-c2cccnc2[C@H](C)OC)c2c3cc(ccc31)-c1csc(n1)C[C@H](NC(=O)[C@H](C(C)C)N(C)C(=O)N1CC3CCC1CN3C)C(=O)N1CCC[C@H](N1)C(=O)OCC(C)(C)C2` [Compound A308], the IC50 lay in the range of 100 to 1000 nM in test [1]; 1000 to 10000 nM in test [2]; 100 to 1000 nM in test [3]; 1000 to 10000 nM in [4]; 100 to 1000 nM in test [5]; 1000 to 10000 nM in [6]. Moreover, the IC50 lay in the range of 1000 to 10000 nM in [7], 100 to 1000 nM in test [8], 1000 to 10000 nM in test [9] and 100 to 1000 nM in test [10].

For `CCn1c(-c2cccnc2[C@H](C)OC)c2c3cc(ccc31)-c1csc(n1)C[C@H](NC(=O)[C@H](C(C)C)N(C)C(=O)N1CC(N(C)C(C)C)C1)C(=O)N1CCC[C@H](N1)C(=O)OCC(C)(C)C2` [Compound A318], the IC50 was 10 to 100 nM in test [1]; 100 to 1000 nM in [2]; 100 to 1000 nM in test [3]; 1000 to 10000 nM in [4]; 100 to 1000 nM in test [5]; 100 to 1000 nM in test [6]. For the same compound, the IC50 lay within 100 to 1000 nM in [7], 100 to 1000 nM in test [8], 100 to 1000 nM in [9] and 10 to 100 nM in test [10].

Consider `CCn1c(-c2cccnc2[C@H](C)OC)c2c3cc(ccc31)-c1cccc(c1)C[C@H](NC(=O)[C@H](C(C)C)N(C)C(=O)N1CC(OC)C1)C(=O)N1CCC[C@H](N1)C(=O)OCC(C)(C)C2` [Compound A355], for which the IC50 lay within 100 to 1000 nM in [1]; 1000 to 10000 nM in test [2]; 100 to 1000 nM in test [3]; 1000 to 10000 nM in test [4]; 100 to 1000 nM in test [5]; 100 to 1000 nM in [6]. In addition, the IC50 in test [7] is 100 to 1000 nM; in test [8] it was 100 to 1000 nM; in test [9] it was 1000 to 10000 nM; in test [10], 100 to 1000 nM.

For the compound `CCn1c(-c2cccnc2[C@H](C)OC)c2c3cc(ccc31)-c1csc(n1)C[C@H](NC(=O)[C@H](C(C)C)N(C)C(=O)N1CCCCC1)C(=O)N1CCC[C@H](N1)C(=O)OCC(C)(C)C2` [Compound A363], the IC50 in test [1] lay in the range of 10 to 100 nM; in [2], 10 to 100 nM; in test [3] it was 10 to 100 nM; in test [4] it was 100 to 1000 nM; in test [5], 10 to 100 nM; in [6], 100 to 1000 nM. The IC50 in [7] lay in the range of 100 to 1000 nM; in test [8], 10 to 100 nM; in [9] it was 100 to 1000 nM; in test [10] it was 10 to 100 nM.

A word on the IC50: it is the concentration that inhibits the measured activity by half.
